Assay results from ChEMBL document CHEMBL4507289, “Data for DCP probe GSM1” (2021).

Tests used:
[1] = target: 1-phosphatidylinositol 3-phosphate 5-kinase (Homo sapiens) (UniProt Q9Y2I7); settings: Compound concentration 1000.0 nM
[2] = target: Tyrosine-protein kinase JAK1 (Homo sapiens) (UniProt P23458); settings: Compound concentration 1000.0 nM
[3] = target: Myosin light chain kinase (Homo sapiens) (UniProt Q32MK0); settings: Compound concentration 1000.0 nM
[4] = target: Calcium/calmodulin-dependent protein kinase type IV (Homo sapiens) (UniProt Q16566); settings: Compound concentration 1000.0 nM
Calcium/calmodulin-dependent protein kinase type IV (Homo sapiens), sequence (Q16566 whole entry): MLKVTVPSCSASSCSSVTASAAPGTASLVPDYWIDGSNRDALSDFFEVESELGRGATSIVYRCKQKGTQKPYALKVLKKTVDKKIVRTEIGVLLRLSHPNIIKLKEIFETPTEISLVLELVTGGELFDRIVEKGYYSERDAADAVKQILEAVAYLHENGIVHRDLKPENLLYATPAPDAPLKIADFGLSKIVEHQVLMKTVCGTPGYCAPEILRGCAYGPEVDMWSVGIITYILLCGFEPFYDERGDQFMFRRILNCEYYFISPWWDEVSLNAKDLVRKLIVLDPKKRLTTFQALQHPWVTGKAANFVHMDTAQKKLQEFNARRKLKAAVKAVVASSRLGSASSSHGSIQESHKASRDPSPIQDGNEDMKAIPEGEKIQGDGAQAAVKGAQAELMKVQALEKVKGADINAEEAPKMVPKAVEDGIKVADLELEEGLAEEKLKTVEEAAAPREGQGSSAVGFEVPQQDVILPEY

[5] = target: NUAK family SNF1-like kinase 2 (Homo sapiens) (UniProt Q9H093); settings: Compound concentration 1000.0 nM
[6] = target: Serine/threonine-protein kinase LATS2 (Homo sapiens) (UniProt Q9NRM7); settings: Compound concentration 1000.0 nM
Serine/threonine-protein kinase LATS2 (Homo sapiens), sequence (Q9NRM7 whole entry): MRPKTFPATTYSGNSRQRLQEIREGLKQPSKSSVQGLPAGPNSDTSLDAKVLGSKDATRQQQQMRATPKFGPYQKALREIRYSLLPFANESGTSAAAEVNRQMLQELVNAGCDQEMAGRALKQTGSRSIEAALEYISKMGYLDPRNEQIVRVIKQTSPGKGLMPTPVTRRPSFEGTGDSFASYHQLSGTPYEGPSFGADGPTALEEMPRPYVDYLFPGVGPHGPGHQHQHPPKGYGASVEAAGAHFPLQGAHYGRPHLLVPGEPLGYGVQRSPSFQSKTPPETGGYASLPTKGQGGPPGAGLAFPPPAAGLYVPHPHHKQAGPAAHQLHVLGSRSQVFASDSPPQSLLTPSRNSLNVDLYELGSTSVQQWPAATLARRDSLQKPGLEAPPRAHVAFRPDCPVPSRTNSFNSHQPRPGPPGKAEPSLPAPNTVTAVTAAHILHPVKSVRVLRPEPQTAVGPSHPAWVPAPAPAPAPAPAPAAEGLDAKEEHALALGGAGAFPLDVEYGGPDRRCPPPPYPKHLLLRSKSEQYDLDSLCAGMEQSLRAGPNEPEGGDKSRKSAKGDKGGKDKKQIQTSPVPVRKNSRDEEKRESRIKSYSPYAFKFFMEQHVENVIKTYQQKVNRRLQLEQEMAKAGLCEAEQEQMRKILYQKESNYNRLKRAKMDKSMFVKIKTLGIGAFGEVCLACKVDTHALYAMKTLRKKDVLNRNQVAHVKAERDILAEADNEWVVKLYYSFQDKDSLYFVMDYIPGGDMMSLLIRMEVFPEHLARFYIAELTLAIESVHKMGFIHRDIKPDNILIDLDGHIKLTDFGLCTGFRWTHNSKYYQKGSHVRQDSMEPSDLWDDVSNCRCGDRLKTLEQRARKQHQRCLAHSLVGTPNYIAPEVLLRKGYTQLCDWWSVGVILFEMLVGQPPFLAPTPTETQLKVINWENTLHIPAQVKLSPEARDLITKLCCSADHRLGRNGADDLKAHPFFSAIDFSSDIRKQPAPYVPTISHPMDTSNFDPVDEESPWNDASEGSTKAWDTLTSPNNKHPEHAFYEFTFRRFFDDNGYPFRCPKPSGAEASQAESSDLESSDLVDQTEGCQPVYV

[7] = target: Protein kinase C theta type (Homo sapiens) (UniProt Q04759); settings: Compound concentration 1000.0 nM
[8] = target: Rho-associated protein kinase 1 (Homo sapiens) (UniProt Q13464); settings: Compound concentration 1000.0 nM
[9] = target: Serine/threonine-protein kinase N2 (Homo sapiens) (UniProt Q16513); settings: Compound concentration 1000.0 nM
[10] = tested on: Receptor-type tyrosine-protein kinase FLT3 (Homo sapiens), P36888 [UNDEFINED MUTATION]; settings: Compound concentration 1000.0 nM
[11] = target: Mitogen-activated protein kinase 9 (Homo sapiens) (UniProt P45984); settings: Compound concentration 1000.0 nM
[12] = target: Cyclin-dependent kinase 2 homolog (Plasmodium falciparum (isolate 3D7)) (UniProt P61075); settings: Compound concentration 1000.0 nM
[13] = target: Wee1-like protein kinase 2 (Homo sapiens) (UniProt P0C1S8); settings: Compound concentration 1000.0 nM
[14] = target: Cyclin-dependent kinase 11B (Homo sapiens) (UniProt P21127); settings: Compound concentration 1000.0 nM
[15] = target: Calcium/calmodulin-dependent protein kinase type 1B (Homo sapiens) (UniProt Q6P2M8); settings: Compound concentration 1000.0 nM
[16] = target: Mitogen-activated protein kinase kinase kinase 4 (Homo sapiens) (UniProt Q9Y6R4); settings: Compound concentration 1000.0 nM
[17] = tested on: Serine/threonine-protein kinase B-raf (Homo sapiens), P15056 [V600E]; settings: Compound concentration 1000.0 nM
[18] = target: Serine/threonine-protein kinase BRSK2 (Homo sapiens) (UniProt Q8IWQ3); settings: Compound concentration 1000.0 nM
[19] = target: Bone morphogenetic protein receptor type-1A (Homo sapiens) (UniProt P36894); settings: Compound concentration 1000.0 nM
[20] = target: Interleukin-1 receptor-associated kinase 1 (Homo sapiens) (UniProt P51617); settings: Compound concentration 1000.0 nM
[21] = target: D(1A) dopamine receptor (Homo sapiens) (UniProt P21728); settings: Compound concentration 10.0 uM
D(1A) dopamine receptor (Homo sapiens), sequence (P21728 whole entry): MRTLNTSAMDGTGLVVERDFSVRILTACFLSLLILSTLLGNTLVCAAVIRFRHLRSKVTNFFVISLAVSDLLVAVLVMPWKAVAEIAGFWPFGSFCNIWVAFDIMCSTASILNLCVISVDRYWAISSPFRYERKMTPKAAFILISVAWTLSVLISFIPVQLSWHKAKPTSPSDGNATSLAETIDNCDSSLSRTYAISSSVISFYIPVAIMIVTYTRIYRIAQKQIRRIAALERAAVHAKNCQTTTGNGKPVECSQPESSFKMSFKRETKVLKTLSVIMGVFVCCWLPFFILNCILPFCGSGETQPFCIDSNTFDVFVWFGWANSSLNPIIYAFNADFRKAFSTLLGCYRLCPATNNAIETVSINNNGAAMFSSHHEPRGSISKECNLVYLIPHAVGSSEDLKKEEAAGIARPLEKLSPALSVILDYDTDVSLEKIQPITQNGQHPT

[22] = tested on: Receptor-type tyrosine-protein kinase FLT3 (Homo sapiens), P36888 [K663Q]; settings: Compound concentration 1000.0 nM
[23] = target: Fibroblast growth factor receptor 1 (Homo sapiens) (UniProt P11362); settings: Compound concentration 1000.0 nM
[24] = target: Serine/threonine-protein kinase 3 (Homo sapiens) (UniProt Q13188); settings: Compound concentration 1000.0 nM
Serine/threonine-protein kinase 3 (Homo sapiens), sequence (Q13188 whole entry): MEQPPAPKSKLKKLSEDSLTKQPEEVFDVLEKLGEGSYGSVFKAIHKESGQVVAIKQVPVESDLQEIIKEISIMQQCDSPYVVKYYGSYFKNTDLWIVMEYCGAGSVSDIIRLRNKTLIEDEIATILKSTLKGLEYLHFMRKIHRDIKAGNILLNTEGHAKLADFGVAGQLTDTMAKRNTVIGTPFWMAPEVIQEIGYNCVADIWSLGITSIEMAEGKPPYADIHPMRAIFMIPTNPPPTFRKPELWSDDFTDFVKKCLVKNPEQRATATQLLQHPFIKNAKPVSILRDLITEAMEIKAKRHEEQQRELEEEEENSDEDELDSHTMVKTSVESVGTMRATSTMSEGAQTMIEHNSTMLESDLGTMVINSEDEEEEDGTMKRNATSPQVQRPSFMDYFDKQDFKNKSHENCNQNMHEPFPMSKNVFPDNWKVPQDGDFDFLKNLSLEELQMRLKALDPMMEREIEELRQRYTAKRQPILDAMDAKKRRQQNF

[25] = target: Activin receptor type-2A (Homo sapiens) (UniProt P27037); settings: Compound concentration 1000.0 nM
[26] = target: Serine/threonine-protein kinase TAO3 (Homo sapiens) (UniProt Q9H2K8); settings: Compound concentration 1000.0 nM
[27] = target: Leucine-rich repeat serine/threonine-protein kinase 2 (Homo sapiens) (UniProt Q5S007); settings: Compound concentration 1000.0 nM
[28] = target: GABA-A receptor; anion channel (Rattus norvegicus) (UniProt O09028+P15431+P18506+P18508+P19969+P20236+P23574+P23576+P28471+P28473+P30191+P62813+P63079+P63138+Q91ZM7+Q9ES14); settings: Compound concentration 10.0 uM
[29] = target: Fibroblast growth factor receptor 4 (Homo sapiens) (UniProt P22455); settings: Compound concentration 1000.0 nM
[30] = target: Serine/threonine-protein kinase TBK1 (Homo sapiens) (UniProt Q9UHD2); settings: Compound concentration 1000.0 nM
[31] = target: Homeodomain-interacting protein kinase 4 (Homo sapiens) (UniProt Q8NE63); settings: Compound concentration 1000.0 nM
Homeodomain-interacting protein kinase 4 (Homo sapiens), sequence (Q8NE63 whole entry): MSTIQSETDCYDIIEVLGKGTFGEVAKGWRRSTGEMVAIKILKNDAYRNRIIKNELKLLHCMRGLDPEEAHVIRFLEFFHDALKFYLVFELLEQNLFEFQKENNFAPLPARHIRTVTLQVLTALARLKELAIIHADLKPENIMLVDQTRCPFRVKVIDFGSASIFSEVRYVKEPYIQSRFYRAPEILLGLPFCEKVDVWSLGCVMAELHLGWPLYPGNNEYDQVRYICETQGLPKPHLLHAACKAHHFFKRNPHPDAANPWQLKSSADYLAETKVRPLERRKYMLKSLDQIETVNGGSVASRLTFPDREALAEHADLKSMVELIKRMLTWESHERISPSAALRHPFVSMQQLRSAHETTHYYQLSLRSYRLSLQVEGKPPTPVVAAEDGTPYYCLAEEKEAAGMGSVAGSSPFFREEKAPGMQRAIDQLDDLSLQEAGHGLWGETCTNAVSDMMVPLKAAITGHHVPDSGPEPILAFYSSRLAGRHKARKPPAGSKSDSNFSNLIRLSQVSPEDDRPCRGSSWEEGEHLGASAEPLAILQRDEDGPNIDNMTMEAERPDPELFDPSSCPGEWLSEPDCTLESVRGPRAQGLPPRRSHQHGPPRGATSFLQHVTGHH

[32] = target: cGMP-dependent protein kinase 2 (Homo sapiens) (UniProt Q13237); settings: Compound concentration 1000.0 nM
[33] = target: Receptor tyrosine-protein kinase erbB-4 (Homo sapiens) (UniProt Q15303); settings: Compound concentration 1000.0 nM
[34] = target: Atypical kinase COQ8A, mitochondrial (Homo sapiens) (UniProt Q8NI60); settings: Compound concentration 1000.0 nM
[35] = target: Tyrosine-protein kinase Tec (Homo sapiens) (UniProt P42680); settings: Compound concentration 1000.0 nM
[36] = target: Maternal embryonic leucine zipper kinase (Homo sapiens) (UniProt Q14680); settings: Compound concentration 1000.0 nM
Maternal embryonic leucine zipper kinase (Homo sapiens), sequence (Q14680 whole entry, looked up): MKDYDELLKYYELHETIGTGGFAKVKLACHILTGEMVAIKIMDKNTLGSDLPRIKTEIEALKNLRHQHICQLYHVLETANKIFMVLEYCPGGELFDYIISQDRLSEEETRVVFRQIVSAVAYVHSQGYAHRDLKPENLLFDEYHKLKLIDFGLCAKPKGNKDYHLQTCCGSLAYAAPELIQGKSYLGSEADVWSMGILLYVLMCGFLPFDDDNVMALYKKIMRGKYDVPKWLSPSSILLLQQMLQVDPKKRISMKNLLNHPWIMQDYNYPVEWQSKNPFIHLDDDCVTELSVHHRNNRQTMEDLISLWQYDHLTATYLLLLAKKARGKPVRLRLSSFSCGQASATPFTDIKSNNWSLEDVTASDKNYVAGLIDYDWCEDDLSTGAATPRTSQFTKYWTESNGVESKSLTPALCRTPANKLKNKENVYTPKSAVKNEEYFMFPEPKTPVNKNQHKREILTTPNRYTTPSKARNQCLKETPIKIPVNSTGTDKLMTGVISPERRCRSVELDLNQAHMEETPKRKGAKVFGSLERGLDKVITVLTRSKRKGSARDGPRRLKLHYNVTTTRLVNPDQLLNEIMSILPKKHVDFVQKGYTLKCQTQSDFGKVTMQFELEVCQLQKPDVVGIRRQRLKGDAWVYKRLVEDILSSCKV

[37] = target: Ephrin type-A receptor 1 (Homo sapiens) (UniProt P21709); settings: Compound concentration 1000.0 nM
[38] = target: Mitogen-activated protein kinase kinase kinase kinase 4 (Homo sapiens) (UniProt O95819); settings: Compound concentration 1000.0 nM
[39] = target: Tyrosine-protein kinase SYK (Homo sapiens) (UniProt P43405); settings: Compound concentration 1000.0 nM
[40] = target: Serine/threonine-protein kinase SBK1 (Homo sapiens) (UniProt Q52WX2); settings: Compound concentration 1000.0 nM
Serine/threonine-protein kinase SBK1 (Homo sapiens), sequence (Q52WX2 whole entry): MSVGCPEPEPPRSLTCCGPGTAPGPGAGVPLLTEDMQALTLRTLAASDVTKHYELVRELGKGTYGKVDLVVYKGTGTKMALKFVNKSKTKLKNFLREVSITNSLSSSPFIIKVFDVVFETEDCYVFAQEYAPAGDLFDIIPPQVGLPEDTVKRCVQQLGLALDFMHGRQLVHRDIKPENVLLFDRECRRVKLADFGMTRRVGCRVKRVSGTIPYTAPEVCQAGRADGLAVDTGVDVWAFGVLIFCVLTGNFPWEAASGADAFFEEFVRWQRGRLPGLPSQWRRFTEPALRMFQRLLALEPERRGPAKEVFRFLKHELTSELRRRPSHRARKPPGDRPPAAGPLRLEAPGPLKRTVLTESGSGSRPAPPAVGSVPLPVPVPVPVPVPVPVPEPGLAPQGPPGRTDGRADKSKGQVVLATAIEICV

[41] = target: Receptor-type tyrosine-protein kinase FLT3 (Homo sapiens) (UniProt P36888); settings: Compound concentration 1000.0 nM
[42] = target: D(1B) dopamine receptor (Homo sapiens) (UniProt P21918); settings: Compound concentration 10.0 uM
[43] = target: Serine/threonine-protein kinase SIK3 (Homo sapiens) (UniProt Q9Y2K2); settings: Compound concentration 1000.0 nM
[44] = target: Cyclin-dependent kinase 14 (Homo sapiens) (UniProt O94921); settings: Compound concentration 1000.0 nM

Myosin light chain kinase (Homo sapiens), sequence (Q32MK0 whole entry): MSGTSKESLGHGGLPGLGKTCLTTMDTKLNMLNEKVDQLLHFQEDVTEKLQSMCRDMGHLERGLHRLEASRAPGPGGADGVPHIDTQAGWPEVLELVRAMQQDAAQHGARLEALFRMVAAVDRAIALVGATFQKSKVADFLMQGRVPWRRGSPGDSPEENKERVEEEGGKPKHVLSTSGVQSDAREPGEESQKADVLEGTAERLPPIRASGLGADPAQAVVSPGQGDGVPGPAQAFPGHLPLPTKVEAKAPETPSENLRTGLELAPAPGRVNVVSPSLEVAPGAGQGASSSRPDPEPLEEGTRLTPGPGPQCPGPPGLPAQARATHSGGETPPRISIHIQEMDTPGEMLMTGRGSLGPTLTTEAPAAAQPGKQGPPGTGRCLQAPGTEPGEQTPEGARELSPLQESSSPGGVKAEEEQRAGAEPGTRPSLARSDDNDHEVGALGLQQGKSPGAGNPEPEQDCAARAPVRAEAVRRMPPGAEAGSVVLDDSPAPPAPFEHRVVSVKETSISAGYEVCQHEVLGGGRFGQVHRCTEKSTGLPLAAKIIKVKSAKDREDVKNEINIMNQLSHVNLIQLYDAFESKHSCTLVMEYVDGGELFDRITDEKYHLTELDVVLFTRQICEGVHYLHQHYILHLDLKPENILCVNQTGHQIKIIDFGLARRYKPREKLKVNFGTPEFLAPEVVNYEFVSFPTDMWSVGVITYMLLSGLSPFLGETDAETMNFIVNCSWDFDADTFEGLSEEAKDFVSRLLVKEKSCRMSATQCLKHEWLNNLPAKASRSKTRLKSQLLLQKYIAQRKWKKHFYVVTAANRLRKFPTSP

COc1cc(-c2cn([C@H]3CCc4ccccc4N(CC(F)(F)F)C3=O)nn2)ccc1-n1ccc(C)n1
residual activity [1]: 100% | residual activity [2]: 87% | residual activity [3]: 100% | residual activity [4]: 100% | residual activity [5]: 88% | residual activity [6]: 69% | residual activity [7]: 94% | residual activity [8]: 100% | residual activity [9]: 98% | residual activity [10]: 98% | residual activity [11]: 64% | residual activity [12]: 100% | residual activity [13]: 100% | residual activity [14]: 100% | residual activity [15]: 100% | residual activity [16]: 85% | residual activity [17]: 97% | residual activity [18]: 97% | residual activity [19]: 89% | residual activity [20]: 100% | inhibition [21]: 3.62% | residual activity [22]: 100% | residual activity [23]: 99% | residual activity [24]: 84% | residual activity [25]: 100% | residual activity [26]: 72% | residual activity [27]: 54% | inhibition [28]: -6.73% | residual activity [29]: 100% | residual activity [30]: 88% | residual activity [31]: 100% | residual activity [32]: 85% | residual activity [33]: 100% | residual activity [34]: 100% | residual activity [35]: 100% | residual activity [36]: 96% | residual activity [37]: 89% | residual activity [38]: 100% | residual activity [39]: 100% | residual activity [40]: 94% | residual activity [41]: 85% | inhibition [42]: 20.1% | residual activity [43]: 92% | residual activity [44]: 100%

COc1cc(-c2cn([C@H]3CCc4c(F)cccc4N(CC(F)(F)F)C3=O)nn2)ccc1-n1cnc(C)c1
residual activity [1]: 100% | residual activity [2]: 100% | residual activity [3]: 92% | residual activity [4]: 100% | residual activity [5]: 100% | residual activity [6]: 100% | residual activity [7]: 89% | residual activity [8]: 100% | residual activity [9]: 100% | residual activity [10]: 100% | residual activity [11]: 92% | residual activity [12]: 100% | residual activity [13]: 100% | residual activity [14]: 95% | residual activity [15]: 100% | residual activity [16]: 94% | residual activity [17]: 100% | residual activity [18]: 100% | residual activity [19]: 100% | residual activity [20]: 100% | inhibition [21]: 5.87% | residual activity [22]: 92% | residual activity [23]: 100% | residual activity [24]: 100% | residual activity [25]: 0% | residual activity [26]: 100% | residual activity [27]: 57% | inhibition [28]: 22.6% | residual activity [29]: 100% | residual activity [30]: 100% | residual activity [31]: 100% | residual activity [32]: 100% | residual activity [33]: 100% | residual activity [34]: 100% | residual activity [35]: 100% | residual activity [36]: 100% | residual activity [37]: 100% | residual activity [38]: 0% | residual activity [39]: 100% | residual activity [40]: 94% | residual activity [41]: 89% | inhibition [42]: -8.33% | residual activity [43]: 100% | residual activity [44]: 100%
